Publication PMC4306533, “Distinct Features of Cap Binding by eIF4E1b Proteins” (Journal of Molecular Biology, 2015)

Key:
XeIF4E1a [1] = biological target: T1, XeIF4E1a (Xenopus laevis, UniProt P48597); assay: time-synchronized fluorescence titration of cap analogue binding; conditions: for ΔΔG^o − glycerol XeIF4E1a: without glycerol; for Kas + glycerol XeIF4E1a / Kas − glycerol XeIF4E1a: equilibrium association constant; for Kas + glycerol XeIF4E1a / ΔΔG^o + glycerol XeIF4E1a: 10% glycerol; for Kas − glycerol XeIF4E1a: buffer without glycerol
T1 construct: made in house; host or cells: E. coli Rosetta2(DE3)
Description: (§1) The time-synchronized fluorescence titration method, widely used to determine the affinity constants of cap–eIF4E complexes [[20,22–26]], measures the quenching of the intrinsic fluorescence of tryptophan residues due to cap binding (Fig. S2). Knowledge of the equilibrium association constant Kas enables the calculation of the free-energy changes involved in the interaction between eIF4E and ligand, according to the standard equation ΔG° = − RTlnKas.
(§2) For human eIF4E1a and eIF4E1b and also for Xenopus eIF4E1a and its mutated forms, measurements were carried out using 0.1 μM protein in 50 mM Hepes/KOH (pH 7.2), 134.5 mM KCl, 0.5 mM EDTA and 1 mM DTT. For Xenopus eIF4E1b(ΔN27), the concentration was 0.2 μM and glycerol was added to the buffer to 10% (v/v) final concentration. […] Fluorescence of measured samples was excited at 280 nm (2.5 nm bandwidth) and detected at 337 nm or 330 nm (4 nm bandwidth), thus reducing the signal originated from the free cap analogues. Measurements were carried out on a LS-55 spectrofluorometer (Perkin Elmer Co.) using freshly prepared proteins, and the fluorescence intensities were corrected for sample dilution and the inner filter effect.
(§3) Equilibrium association constants (Kas) were determined by fitting the theoretical dependence of fluorescence intensity on the total concentration of the cap analogue to the experimental data points, according to the equation described previously (see Ref. [22] and Fig. S2c).
(§4) The final Kas was calculated as a weighted average of 2–6 independent titrations with the weights taken as the reciprocal of the numerical standard deviation squared. Numerical, nonlinear least-squares regression analysis was performed using Origin 6.0 (Microcal Software Inc.). Obtained association constants were used to determine the Gibbs free energy according to the standard equation ΔG° = − RTlnKas.

XeIF4E1a [2] = assay: as above; set-up: species or system Xenopus laevis; conditions: without glycerol
Description: as §1, §2, §3, §4

heIF4E1a = biological target: T2, heIF4E1a (Homo sapiens, UniProt P06730); assay: as above; conditions: for ΔΔG^o − glycerol heIF4E1a: without glycerol; for Kas − glycerol heIF4E1a: equilibrium association constant, buffer without glycerol
T2 construct: made in house; host or cells: E. coli Rosetta2(DE3)
Description: as §1, §2, §3, §4

heIF4E1b [3] = biological target: T3, heIF4E1b (Homo sapiens, UniProt A6NMX2); assay: as above; conditions: for Kas − glycerol heIF4E1b: equilibrium association constant, buffer without glycerol
T3 construct: made in house; host or cells: E. coli Rosetta2(DE3)
T3 sequence (A6NMX2 1-242): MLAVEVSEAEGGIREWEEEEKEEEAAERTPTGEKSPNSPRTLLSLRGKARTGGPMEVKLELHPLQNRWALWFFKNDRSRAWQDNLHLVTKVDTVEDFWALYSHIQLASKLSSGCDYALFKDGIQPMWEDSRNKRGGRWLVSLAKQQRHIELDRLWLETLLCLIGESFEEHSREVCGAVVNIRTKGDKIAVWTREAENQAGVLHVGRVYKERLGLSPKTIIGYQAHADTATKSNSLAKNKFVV
Description: as §1, §2, §3, §4

heIF4E1b [4] = assay: as above; set-up: species or system human; conditions: without glycerol
Description: as §1, §2, §3, §4

XeIF4E1bΔN27 = assay: as above; set-up: species or system Xenopus laevis; conditions: for Kas + glycerol XeIF4E1bΔN27: equilibrium association constant
Description: as §1, §2, §3, §4

X4E1a1 (E101S) = biological target: T4, X4E1a1 (E101S) (Xenopus laevis, UniProt P48597, E101S); assay: fluorescence titration, XeIF4E1a mutant; assay type: binding; conditions: mutant (E101S) of XeIF4E1a
T4 construct: made in house; host or cells: E. coli Rosetta2(DE3)
Description: (§5) We tested the effect on cap-binding activity of these positions in the fluorescence assay with six mutated recombinant versions of Xenopus eIF4E1a (Fig. S4). The amino acids were introduced in XeIF4E1a sequentially in the order: E101S/K102R/S195A/M82S/T206L/T207S (numbering of the XeIF4E1a sequence is shifted backward by 4 amino acids relative to XeIF4E1b). […] The biggest contribution to the weaker cap binding of XeIF4E1a, in each case about 20%, resulted from changing Glu101 to Ser and Thr206 to Leu coupled with Thr207 to Ser, with the remaining mutations having only minor effects. […] Glu101 is a solvent-accessible amino acid and is proximal to Trp98 in the S3-S4 loop. […] Attenuation of the cap-binding affinity of XeIF4E1a resulting from mutating Thr206 and Thr207 is consistent with our results mentioned above showing significant influence of C-terminal loop residues on binding phosphate and the second nucleotide.
(§6) For human eIF4E1a and eIF4E1b and also for Xenopus eIF4E1a and its mutated forms, measurements were carried out using 0.1 μM protein in 50 mM Hepes/KOH (pH 7.2), 134.5 mM KCl, 0.5 mM EDTA and 1 mM DTT. For Xenopus eIF4E1b(ΔN27), the concentration was 0.2 μM and glycerol was added to the buffer to 10% (v/v) final concentration. […] The gradually increasing concentration of cap analogue quenches protein fluorescence without shifting the spectrum maximum, while at high concentrations, the fluorescence signal of free cap analogue dominates over the fluorescence from other solution components including free eIF4E and eIF4E in complex with cap (Fig. S2a). Fluorescence of measured samples was excited at 280 nm (2.5 nm bandwidth) and detected at 337 nm or 330 nm (4 nm bandwidth), thus reducing the signal originated from the free cap analogues. Measurements were carried out on a LS-55 spectrofluorometer (Perkin Elmer Co.) using freshly prepared proteins, and the fluorescence intensities were corrected for sample dilution and the inner filter effect.
(§7) Equilibrium association constants (Kas) were determined by fitting the theoretical dependence of fluorescence intensity on the total concentration of the cap analogue to the experimental data points, according to the equation described previously (see Ref. [22] and Fig. S2c). […] Along with Kas and the concentration of the active protein [P0^act], other parameters such as fL and ∆f = fPact − fPL are also gained from the fit, where fL represents the fluorescence efficiency of free cap analogue and ∆f represents the difference between the fluorescence efficiencies of the apo-protein and the complex (Fig. S2c).
as §4

X4E1a1’ (K102R) = biological target: T5, X4E1a1’ (K102R) (Xenopus laevis, UniProt P48597, K102R); assay: fluorescence titration, XeIF4E1a mutant; assay type: binding; conditions: mutant (K102R) of XeIF4E1a
T5 construct: made in house; host or cells: E. coli Rosetta2(DE3)
Description: as §5, §6, §7, §4

X4E1a2 (E101S/K102R) = biological target: T6, X4E1a2 (E101S/K102R) (Xenopus laevis, UniProt P48597, E101S/K102R); assay: fluorescence titration, XeIF4E1a mutant; assay type: binding; conditions: mutant (E101S/K102R) of XeIF4E1a
T6 construct: made in house; host or cells: E. coli Rosetta2(DE3)
Description: as §5, §6, §7, §4

[5] = biological target: T7, X4E1a3 (E101S/K102R/S195A) (Xenopus laevis, UniProt P48597, E101S/K102R/S195A); assay: fluorescence titration, XeIF4E1a mutant; assay type: binding; conditions: mutant (E101S/K102R/S195A) of XeIF4E1a
T7 construct: made in house; host or cells: E. coli Rosetta2(DE3)
Description: as §5, §6, §7, §4

[6] = biological target: T8, X4E1a4 (E101S/K102R/S195A/M82S) (Xenopus laevis, UniProt P48597, E101S/K102R/M82S/S195A); assay: fluorescence titration, XeIF4E1a mutant; assay type: binding; conditions: mutant (E101S/K102R/S195A/M82S) of XeIF4E1a
T8 construct: made in house; host or cells: E. coli Rosetta2(DE3)
Description: as §5, §6, §7, §4

[7] = biological target: T9, X4E1a6 (E101S/K102R/S195A/M82S/T206L/T207S) (Xenopus laevis, UniProt P48597, E101S/K102R/M82S/S195A/T206L/T207S); assay: fluorescence titration, XeIF4E1a mutant; assay type: binding; conditions: for Kas X4E1a6: mutant (E101S/K102R/S195A/M82S/T206L/T207S) of XeIF4E1a
T9 construct: made in house; host or cells: E. coli Rosetta2(DE3)
Description: as §5, §6, §7, §4

T8 sequence (P48597 whole entry M82S/E101S/K102R/S195A): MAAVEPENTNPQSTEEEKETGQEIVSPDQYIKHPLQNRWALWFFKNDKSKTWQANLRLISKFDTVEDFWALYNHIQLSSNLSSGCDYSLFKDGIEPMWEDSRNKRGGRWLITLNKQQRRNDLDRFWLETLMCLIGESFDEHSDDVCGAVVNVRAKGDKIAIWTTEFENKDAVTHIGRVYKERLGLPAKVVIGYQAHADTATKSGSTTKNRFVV
T5 sequence (P48597 whole entry K102R): as the sequence (P48597 whole entry M82S/E101S/K102R/S195A) above, with S82M, S101E, A195S counted along it
T6 sequence (P48597 whole entry E101S/K102R): as the sequence (P48597 whole entry M82S/E101S/K102R/S195A) above, with S82M, A195S counted along it
T4 sequence (P48597 whole entry E101S): as the sequence (P48597 whole entry M82S/E101S/K102R/S195A) above, with S82M, R102K, A195S counted along it
T9 sequence (P48597 whole entry M82S/E101S/K102R/S195A/T206L/T207S): as the sequence (P48597 whole entry M82S/E101S/K102R/S195A) above, with T206L, T207S counted along it
T1 sequence (P48597 whole entry): as the sequence (P48597 whole entry M82S/E101S/K102R/S195A) above, with S82M, S101E, R102K, A195S counted along it
T7 sequence (P48597 whole entry E101S/K102R/S195A): as the sequence (P48597 whole entry M82S/E101S/K102R/S195A) above, with S82M counted along it
T2 sequence (P06730 whole entry): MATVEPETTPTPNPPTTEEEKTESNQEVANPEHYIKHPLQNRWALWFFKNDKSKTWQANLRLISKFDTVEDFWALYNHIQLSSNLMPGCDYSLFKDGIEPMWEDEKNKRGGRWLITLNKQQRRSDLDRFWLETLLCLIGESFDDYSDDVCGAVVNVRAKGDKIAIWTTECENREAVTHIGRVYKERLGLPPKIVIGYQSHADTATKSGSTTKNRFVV

SMILES	Kas + glycerol XeIF4E1a (XeIF4E1a [1]) [μM^− 1]	Kas − glycerol XeIF4E1a (XeIF4E1a [1]) [μM^− 1]	Ratio Kas (h4E1a) to Kas (X4E1a) (XeIF4E1a [2])	Kas − glycerol heIF4E1a (heIF4E1a) [μM^− 1]	Kas − glycerol heIF4E1b (heIF4E1b [3]) [μM^− 1]	Ratio Kas (h4E1a) to Kas (h4E1b) (heIF4E1b [4])	Ratio Kas (X4E1a) to Kas (X4E1bΔN27) (XeIF4E1bΔN27; 10% glycerol)	Kas + glycerol XeIF4E1bΔN27 (XeIF4E1bΔN27; 10% glycerol) [μM^− 1]	Kas X4E1a1 (X4E1a1 (E101S)) [µM⁻¹]	Kas X4E1a1’ (X4E1a1’ (K102R)) [µM⁻¹]	Kas X4E1a2 (X4E1a2 (E101S/K102R)) [µM⁻¹]	Kas X4E1a3 [5] [µM⁻¹]	Kas X4E1a4 [6] [µM⁻¹]	Kas X4E1a6 [7] [µM⁻¹]	other results
Nc1nc2c(c(=O)[nH]1)n(Cc1ccccc1)c[n+]2[C@@H]1O[C@H](COP(=O)(O)OP(=O)(O)O)[C@@H](O)[C@H]1O [bn^7GDP]	6.04 ± 0.92	10.62 ± 0.98	1.58	16.79 ± 0.56	35.4 ± 1.6	0.47	1.38	4.36 ± 0.18	9.01 ± 0.21	11.22 ± 0.65	8.86 ± 0.16	9.08 ± 0.33	11.66 ± 0.64	7.09 ± 0.18	ΔΔG^o − glycerol XeIF4E1a (XeIF4E1a [1]; change relative to m^7GDP): 0.042 ± 0.059 kcal/mol; ΔΔG^o − glycerol heIF4E1a (heIF4E1a; change relative to m^7GDP): 0.033 ± 0.022 kcal/mol; fold increase of association constant compared with m^7GDP (heIF4E1b [3]; benzyl substitution): approximately 5 fold; fold increase of association constant compared with m^7GDP (XeIF4E1bΔN27; benzyl substitution): ~2 fold; Kas + glycerol X4E1a6 ([7]; 10% glycerol, Fig. 5d): 3.57 ± 0.24 µM⁻¹
CCn1c[n+]([C@@H]2O[C@H](COP(=O)(O)OP(=O)(O)OP(=O)(O)O)[C@@H](O)[C@H]2O)c2nc(N)[nH]c(=O)c21 [et^7GTP]	4.97 ± 0.22	7.89 ± 0.57	1.65	13.04 ± 0.31	7.34 ± 0.34	1.78	2.20	2.26 ± 0.20	7.14 ± 0.63	7.38 ± 0.18	7.132 ± 0.088	6.23 ± 0.17	8.21 ± 0.51	4.41 ± 0.16	fold decrease of association constant relative to m^7GTP (XeIF4E1a [1]; N^7-methyl replaced by ethyl): approximately 5 fold; ΔΔG^o + glycerol XeIF4E1a (XeIF4E1a [1]; change relative to m^7GTP): 0.900 ± 0.035 kcal/mol; ΔΔG^o − glycerol XeIF4E1a (XeIF4E1a [1]; change relative to m^7GTP): 0.984 ± 0.050 kcal/mol; fold decrease of association constant relative to m^7GTP (heIF4E1a; N^7-methyl replaced by ethyl): approximately 5 fold; ΔΔG^o − glycerol heIF4E1a (heIF4E1a; change relative to m^7GTP): 0.965 ± 0.045 kcal/mol; fold decrease of association constant relative to m^7GTP (heIF4E1b [3]; N^7-methyl replaced by ethyl): 3 fold; ΔΔG^o − glycerol heIF4E1b (heIF4E1b [3]; change relative to m^7GTP, without glycerol): 0.639 ± 0.045 kcal/mol; fold decrease of association constant relative to m^7GTP (XeIF4E1bΔN27; N^7-methyl replaced by ethyl): 3 fold; ΔΔG^o + glycerol XeIF4E1bΔN27 (XeIF4E1bΔN27; change relative to m^7GTP, 10% glycerol): 0.722 ± 0.059 kcal/mol
Cn1c[n+]([C@@H]2O[C@H](COP(=O)([O-])OP(=O)(O)OP(=O)(O)O)[C@@H](O)[C@H]2O)c2nc(N)[nH]c(=O)c21 [m^7GTP]	23.34 ± 0.88	42.8 ± 2.0			22.0 ± 1.4			7.80 ± 0.41	33.58 ± 0.66	34.3 ± 1.7	32.76 ± 0.51	28.1 ± 1.5	26.7 ± 2.2	19.8 ± 0.4	decrease of association constant compared to wild-type XeIF4E1a ([7]; all six residues replaced): 50%
Cn1c[n+]([C@@H]2O[C@H](COP(=O)(O)OP(=O)(O)OP(=O)(O)OP(=O)(O)OP(=O)(O)O)[C@@H](O)[C@H]2O)c2nc(N)[nH]c(=O)c21 [m^7Gp5]	230 ± 31	378 ± 44	1.44	547 ± 31	146.6 ± 9.9	3.73	3.50	65.6 ± 4.2	279 ± 34	382 ± 16	280 ± 11			190 ± 6	
CO[C@@H]1[C@H](O)[C@@H](COP(=O)(O)OP(=O)(O)OP(=O)(O)OC[C@H]2O[C@@H](n3c[n+](C)c4c(=O)[nH]c(N)nc43)[C@H](O)[C@@H]2O)O[C@H]1n1cnc2c(=O)[nH]c(N)nc21 [m^7Gpppm^2′-OG]	2.189 ± 0.026			4.77 ± 0.13	3.568 ± 0.071	1.34									ΔΔG^o + glycerol XeIF4E1a (XeIF4E1a [1]; change relative to m^7Gp3G): 0.026 ± 0.018 kcal/mol; ΔΔG^o − glycerol heIF4E1a (heIF4E1a; change relative to m^7Gp3G): 0.128 ± 0.041 kcal/mol
